The values below come from ChEMBL document CHEMBL1148413, “5-Fluorinated L-lysine analogues as selective induced nitric oxide synthase inhibitors” (J Med Chem, 2004).

In experiment [1] the target is T1, Nitric oxide synthase 3 (Homo sapiens) (UniProt P29474).
T1 sequence (whole entry): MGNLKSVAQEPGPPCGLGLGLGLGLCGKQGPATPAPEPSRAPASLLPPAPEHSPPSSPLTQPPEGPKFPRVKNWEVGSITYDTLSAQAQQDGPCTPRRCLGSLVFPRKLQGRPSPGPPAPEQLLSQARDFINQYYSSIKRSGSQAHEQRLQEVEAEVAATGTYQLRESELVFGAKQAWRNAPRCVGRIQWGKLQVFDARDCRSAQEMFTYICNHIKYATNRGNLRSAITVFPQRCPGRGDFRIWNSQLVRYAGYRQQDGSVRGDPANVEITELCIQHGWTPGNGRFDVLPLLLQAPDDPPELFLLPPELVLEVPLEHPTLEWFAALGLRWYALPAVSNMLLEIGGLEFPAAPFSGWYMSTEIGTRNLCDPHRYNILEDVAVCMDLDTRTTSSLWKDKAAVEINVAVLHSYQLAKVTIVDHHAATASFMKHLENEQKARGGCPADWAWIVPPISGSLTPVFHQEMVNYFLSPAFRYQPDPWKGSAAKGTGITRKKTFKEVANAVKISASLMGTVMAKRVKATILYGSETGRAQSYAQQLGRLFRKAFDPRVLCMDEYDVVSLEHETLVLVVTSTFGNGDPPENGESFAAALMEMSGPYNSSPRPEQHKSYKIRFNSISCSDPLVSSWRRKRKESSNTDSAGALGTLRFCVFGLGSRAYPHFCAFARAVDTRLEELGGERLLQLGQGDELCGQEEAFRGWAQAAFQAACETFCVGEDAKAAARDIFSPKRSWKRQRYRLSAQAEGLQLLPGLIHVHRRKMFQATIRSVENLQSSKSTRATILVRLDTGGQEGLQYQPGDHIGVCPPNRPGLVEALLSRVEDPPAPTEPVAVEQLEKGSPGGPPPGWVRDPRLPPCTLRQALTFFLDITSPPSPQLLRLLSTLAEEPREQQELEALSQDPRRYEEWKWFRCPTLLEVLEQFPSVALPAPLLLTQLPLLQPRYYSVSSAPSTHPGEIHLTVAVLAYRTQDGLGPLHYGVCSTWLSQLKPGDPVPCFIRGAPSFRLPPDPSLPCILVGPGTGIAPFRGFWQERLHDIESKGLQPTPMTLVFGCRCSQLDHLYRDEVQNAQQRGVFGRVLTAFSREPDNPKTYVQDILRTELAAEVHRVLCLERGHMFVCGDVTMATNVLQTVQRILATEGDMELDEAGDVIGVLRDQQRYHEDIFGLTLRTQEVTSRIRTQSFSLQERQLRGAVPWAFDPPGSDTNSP
The experiment can be described thus: Selectivity for endothelial nitric oxide synthase over inducible nitric oxide synthase.

Experiment [2] deals with T2, Nitric oxide synthase 1 (Homo sapiens, UniProt P29475). The experiment is described as follows: Selectivity for Neuronal nitric oxide synthase over inducible nitric oxide synthase.
T2 sequence (P29475 whole entry): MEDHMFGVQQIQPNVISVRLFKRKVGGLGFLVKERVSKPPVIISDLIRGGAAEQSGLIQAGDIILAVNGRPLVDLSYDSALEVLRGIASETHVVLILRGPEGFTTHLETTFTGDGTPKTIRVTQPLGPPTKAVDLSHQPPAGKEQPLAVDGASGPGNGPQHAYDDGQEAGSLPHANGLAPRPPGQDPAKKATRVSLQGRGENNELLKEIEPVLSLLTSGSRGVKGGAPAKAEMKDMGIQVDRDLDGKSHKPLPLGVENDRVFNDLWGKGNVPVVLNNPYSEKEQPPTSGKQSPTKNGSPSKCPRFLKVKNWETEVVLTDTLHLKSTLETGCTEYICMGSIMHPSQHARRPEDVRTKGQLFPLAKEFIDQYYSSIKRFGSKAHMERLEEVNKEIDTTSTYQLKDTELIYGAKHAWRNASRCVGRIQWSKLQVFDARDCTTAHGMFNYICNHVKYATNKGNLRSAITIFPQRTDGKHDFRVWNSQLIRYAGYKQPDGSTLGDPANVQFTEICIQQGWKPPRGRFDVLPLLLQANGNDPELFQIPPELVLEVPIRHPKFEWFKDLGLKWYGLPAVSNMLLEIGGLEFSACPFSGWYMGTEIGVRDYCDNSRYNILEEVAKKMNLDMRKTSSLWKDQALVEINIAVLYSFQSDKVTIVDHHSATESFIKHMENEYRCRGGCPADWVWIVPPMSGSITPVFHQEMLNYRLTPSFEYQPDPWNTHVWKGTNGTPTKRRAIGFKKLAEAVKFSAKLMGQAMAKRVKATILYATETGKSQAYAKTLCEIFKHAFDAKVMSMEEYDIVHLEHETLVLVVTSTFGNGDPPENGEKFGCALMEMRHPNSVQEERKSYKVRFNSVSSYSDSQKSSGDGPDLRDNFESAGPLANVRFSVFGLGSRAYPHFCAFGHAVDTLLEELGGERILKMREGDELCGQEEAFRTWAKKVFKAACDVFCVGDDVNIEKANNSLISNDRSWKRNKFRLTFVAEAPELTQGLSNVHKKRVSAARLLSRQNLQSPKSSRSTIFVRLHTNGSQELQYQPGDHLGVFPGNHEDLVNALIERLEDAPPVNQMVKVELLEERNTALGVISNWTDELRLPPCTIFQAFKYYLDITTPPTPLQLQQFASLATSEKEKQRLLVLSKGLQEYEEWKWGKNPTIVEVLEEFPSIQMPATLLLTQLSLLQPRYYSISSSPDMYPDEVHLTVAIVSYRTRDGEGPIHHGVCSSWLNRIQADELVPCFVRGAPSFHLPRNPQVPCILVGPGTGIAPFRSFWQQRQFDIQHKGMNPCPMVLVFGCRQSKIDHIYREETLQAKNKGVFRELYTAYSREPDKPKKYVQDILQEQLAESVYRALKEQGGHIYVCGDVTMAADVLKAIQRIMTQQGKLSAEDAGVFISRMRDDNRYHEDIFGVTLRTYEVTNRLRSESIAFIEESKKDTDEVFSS
The target in experiment [3] is T3, Nitric oxide synthase 3 (Homo sapiens, UniProt P29474).
T3 sequence (P29474 whole entry): T1 sequence (whole entry)
The experiment can be described thus: (§1) Inhibition concentration against Endothelial nitric oxide synthase (eNOS) at 10 uM concentration.

Experiment [4] addresses T2, Nitric oxide synthase 1. The experiment is described as follows: Inhibition concentration against Neuronal nitric oxide synthase (nNOS) at 10 uM concentration.
For experiment [5], the target named is T4, Nitric oxide synthase, inducible (Homo sapiens, UniProt P35228). The experiment is described as follows: Inhibition concentration against Inducible nitric oxide synthase (iNOS) at 10 uM concentration.
T4 sequence (P35228 whole entry): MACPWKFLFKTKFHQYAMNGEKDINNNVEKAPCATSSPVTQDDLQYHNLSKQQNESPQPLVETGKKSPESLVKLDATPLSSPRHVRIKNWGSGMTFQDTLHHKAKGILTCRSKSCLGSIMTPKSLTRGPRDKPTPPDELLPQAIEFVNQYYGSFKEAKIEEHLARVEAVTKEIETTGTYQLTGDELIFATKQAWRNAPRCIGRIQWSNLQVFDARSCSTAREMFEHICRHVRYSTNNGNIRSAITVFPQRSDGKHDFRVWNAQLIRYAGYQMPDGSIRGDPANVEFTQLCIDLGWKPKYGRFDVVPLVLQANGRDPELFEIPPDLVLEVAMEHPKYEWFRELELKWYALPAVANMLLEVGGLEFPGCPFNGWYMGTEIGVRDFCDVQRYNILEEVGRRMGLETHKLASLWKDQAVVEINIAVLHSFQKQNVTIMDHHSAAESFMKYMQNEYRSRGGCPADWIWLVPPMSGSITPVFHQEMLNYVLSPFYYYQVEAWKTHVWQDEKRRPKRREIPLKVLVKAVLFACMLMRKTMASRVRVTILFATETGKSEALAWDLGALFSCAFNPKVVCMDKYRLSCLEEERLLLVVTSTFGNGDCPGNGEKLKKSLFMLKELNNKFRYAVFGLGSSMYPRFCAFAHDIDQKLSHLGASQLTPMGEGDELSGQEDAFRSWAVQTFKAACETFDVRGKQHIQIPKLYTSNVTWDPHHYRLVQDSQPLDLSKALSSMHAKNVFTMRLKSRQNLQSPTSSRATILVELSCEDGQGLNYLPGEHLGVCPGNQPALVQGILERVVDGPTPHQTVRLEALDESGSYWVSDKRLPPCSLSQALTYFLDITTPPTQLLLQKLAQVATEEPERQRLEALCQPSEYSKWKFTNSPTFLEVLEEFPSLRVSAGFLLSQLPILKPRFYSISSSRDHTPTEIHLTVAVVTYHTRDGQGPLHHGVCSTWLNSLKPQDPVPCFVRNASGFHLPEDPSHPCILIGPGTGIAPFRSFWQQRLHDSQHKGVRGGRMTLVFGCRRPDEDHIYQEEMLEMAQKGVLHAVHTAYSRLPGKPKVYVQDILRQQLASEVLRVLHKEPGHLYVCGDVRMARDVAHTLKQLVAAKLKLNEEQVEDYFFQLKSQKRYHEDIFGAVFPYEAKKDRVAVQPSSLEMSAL
Experiment [6] has as its target T4, Nitric oxide synthase, inducible. Particulars: 10 uM.
Experiment [7] concerns the target T2, Nitric oxide synthase 1. To be noted: 10 uM.
Experiment [8] deals with T1, Nitric oxide synthase 3 (Homo sapiens). The experiment is described as §1.
For experiment [9], the target named is T3, Nitric oxide synthase 3. The experiment can be described thus: Percent inhibition against Endothelial nitric oxide synthase (eNOS) at 10 uM concentration.

What is called IC50 is the midpoint of a concentration-inhibition curve. Read a low IC50 as greater potency. Consider `CC(=N)NC[C@@H](F)CC[C@H](N)C(=O)O`, for which the Selectivity in experiment [1] came out at 34; in experiment [2] it was 9. In addition, the results for the IC50 in [3], in experiment [4] and in experiment [5] were 81 µM, 21.7 µM and 2.36 µM, respectively.
As usually defined, the inhibition is the share of the control response that was lost under treatment. Low values mean little suppression, high ones strong suppression. As to `CC(=N)NC[C@H](F)CC[C@@H](N)C(=O)O`, the inhibition in experiment [6] stood at 8.9%; in experiment [7], 18%; in experiment [8], 6.52%.
For the compound `CC(=N)NCCCC[C@H](N)C(=O)O` [L-NIL], the Selectivity in experiment [1] turned out to be 28; in experiment [2] it was 7. Half-maximal inhibition in [5] (IC50) was put at 4.9 µM.
For `CC(=N)NCC(F)(F)CC[C@H](N)C(=O)O`, the Selectivity worked out at 7 in [1] and 4 in experiment [2]. In addition, the IC50 came out at 57.5 µM in experiment [3], 33.8 µM in experiment [4] and 8.75 µM in experiment [5].
Taken in the same sequence, the figures for `CC(=N)NC[C@@H](F)CC[C@@H](N)C(=O)O` were 8, 7, 374 µM, 311 µM and 47.8 µM.
Taken in the same sequence, the figures for `CC(=N)NCC(F)CCC(N)C(=O)O` (centres undefined) were 23, 9, 182 µM, 70.4 µM and 7.84 µM.
Taken in the same sequence, the figures for `CC(=N)NCC(F)(F)CCC(N)C(=O)O` (centres undefined) were 7, 7, 139 µM, 140 µM and 21.4 µM.
What is called Inhibition is the relative decrease from the control value, in per cent. Lower therefore signals a weak effect. As to `CC(=N)NC[C@H](F)CC[C@H](N)C(=O)O`, the inhibition in experiment [6] amounted to 4%; in [7] it was 0%. In experiment [9], the Inhibition amounted to 28.2%.
